Measured values from PMC9950431, “A bivalent remipede toxin promotes calcium release via ryanodine receptor activation” (Nature Communications, 2023).
Entries after “also recorded” stand apart in the source; their conditions may differ.

Assays:
RyR1 [1] = target: T1, RyR1 (Oryctolagus cuniculus, UniProt P11716); experiment: Single channel electrophysiology of RyR1 channels inserted into lipid bilayers (exposure to peptide); assay type: biochemical, New Zealand white rabbit (skeletal SR); settings: for relPo: without WO, relative to control
T1 construct: skeletal SR vesicles were isolated from the back and leg muscles of mature female New Zealand white rabbits; from tissue; host or cells: rabbit back and leg skeletal muscle, sarcoplasmic reticulum vesicles
T1 sequence (P11716 whole entry): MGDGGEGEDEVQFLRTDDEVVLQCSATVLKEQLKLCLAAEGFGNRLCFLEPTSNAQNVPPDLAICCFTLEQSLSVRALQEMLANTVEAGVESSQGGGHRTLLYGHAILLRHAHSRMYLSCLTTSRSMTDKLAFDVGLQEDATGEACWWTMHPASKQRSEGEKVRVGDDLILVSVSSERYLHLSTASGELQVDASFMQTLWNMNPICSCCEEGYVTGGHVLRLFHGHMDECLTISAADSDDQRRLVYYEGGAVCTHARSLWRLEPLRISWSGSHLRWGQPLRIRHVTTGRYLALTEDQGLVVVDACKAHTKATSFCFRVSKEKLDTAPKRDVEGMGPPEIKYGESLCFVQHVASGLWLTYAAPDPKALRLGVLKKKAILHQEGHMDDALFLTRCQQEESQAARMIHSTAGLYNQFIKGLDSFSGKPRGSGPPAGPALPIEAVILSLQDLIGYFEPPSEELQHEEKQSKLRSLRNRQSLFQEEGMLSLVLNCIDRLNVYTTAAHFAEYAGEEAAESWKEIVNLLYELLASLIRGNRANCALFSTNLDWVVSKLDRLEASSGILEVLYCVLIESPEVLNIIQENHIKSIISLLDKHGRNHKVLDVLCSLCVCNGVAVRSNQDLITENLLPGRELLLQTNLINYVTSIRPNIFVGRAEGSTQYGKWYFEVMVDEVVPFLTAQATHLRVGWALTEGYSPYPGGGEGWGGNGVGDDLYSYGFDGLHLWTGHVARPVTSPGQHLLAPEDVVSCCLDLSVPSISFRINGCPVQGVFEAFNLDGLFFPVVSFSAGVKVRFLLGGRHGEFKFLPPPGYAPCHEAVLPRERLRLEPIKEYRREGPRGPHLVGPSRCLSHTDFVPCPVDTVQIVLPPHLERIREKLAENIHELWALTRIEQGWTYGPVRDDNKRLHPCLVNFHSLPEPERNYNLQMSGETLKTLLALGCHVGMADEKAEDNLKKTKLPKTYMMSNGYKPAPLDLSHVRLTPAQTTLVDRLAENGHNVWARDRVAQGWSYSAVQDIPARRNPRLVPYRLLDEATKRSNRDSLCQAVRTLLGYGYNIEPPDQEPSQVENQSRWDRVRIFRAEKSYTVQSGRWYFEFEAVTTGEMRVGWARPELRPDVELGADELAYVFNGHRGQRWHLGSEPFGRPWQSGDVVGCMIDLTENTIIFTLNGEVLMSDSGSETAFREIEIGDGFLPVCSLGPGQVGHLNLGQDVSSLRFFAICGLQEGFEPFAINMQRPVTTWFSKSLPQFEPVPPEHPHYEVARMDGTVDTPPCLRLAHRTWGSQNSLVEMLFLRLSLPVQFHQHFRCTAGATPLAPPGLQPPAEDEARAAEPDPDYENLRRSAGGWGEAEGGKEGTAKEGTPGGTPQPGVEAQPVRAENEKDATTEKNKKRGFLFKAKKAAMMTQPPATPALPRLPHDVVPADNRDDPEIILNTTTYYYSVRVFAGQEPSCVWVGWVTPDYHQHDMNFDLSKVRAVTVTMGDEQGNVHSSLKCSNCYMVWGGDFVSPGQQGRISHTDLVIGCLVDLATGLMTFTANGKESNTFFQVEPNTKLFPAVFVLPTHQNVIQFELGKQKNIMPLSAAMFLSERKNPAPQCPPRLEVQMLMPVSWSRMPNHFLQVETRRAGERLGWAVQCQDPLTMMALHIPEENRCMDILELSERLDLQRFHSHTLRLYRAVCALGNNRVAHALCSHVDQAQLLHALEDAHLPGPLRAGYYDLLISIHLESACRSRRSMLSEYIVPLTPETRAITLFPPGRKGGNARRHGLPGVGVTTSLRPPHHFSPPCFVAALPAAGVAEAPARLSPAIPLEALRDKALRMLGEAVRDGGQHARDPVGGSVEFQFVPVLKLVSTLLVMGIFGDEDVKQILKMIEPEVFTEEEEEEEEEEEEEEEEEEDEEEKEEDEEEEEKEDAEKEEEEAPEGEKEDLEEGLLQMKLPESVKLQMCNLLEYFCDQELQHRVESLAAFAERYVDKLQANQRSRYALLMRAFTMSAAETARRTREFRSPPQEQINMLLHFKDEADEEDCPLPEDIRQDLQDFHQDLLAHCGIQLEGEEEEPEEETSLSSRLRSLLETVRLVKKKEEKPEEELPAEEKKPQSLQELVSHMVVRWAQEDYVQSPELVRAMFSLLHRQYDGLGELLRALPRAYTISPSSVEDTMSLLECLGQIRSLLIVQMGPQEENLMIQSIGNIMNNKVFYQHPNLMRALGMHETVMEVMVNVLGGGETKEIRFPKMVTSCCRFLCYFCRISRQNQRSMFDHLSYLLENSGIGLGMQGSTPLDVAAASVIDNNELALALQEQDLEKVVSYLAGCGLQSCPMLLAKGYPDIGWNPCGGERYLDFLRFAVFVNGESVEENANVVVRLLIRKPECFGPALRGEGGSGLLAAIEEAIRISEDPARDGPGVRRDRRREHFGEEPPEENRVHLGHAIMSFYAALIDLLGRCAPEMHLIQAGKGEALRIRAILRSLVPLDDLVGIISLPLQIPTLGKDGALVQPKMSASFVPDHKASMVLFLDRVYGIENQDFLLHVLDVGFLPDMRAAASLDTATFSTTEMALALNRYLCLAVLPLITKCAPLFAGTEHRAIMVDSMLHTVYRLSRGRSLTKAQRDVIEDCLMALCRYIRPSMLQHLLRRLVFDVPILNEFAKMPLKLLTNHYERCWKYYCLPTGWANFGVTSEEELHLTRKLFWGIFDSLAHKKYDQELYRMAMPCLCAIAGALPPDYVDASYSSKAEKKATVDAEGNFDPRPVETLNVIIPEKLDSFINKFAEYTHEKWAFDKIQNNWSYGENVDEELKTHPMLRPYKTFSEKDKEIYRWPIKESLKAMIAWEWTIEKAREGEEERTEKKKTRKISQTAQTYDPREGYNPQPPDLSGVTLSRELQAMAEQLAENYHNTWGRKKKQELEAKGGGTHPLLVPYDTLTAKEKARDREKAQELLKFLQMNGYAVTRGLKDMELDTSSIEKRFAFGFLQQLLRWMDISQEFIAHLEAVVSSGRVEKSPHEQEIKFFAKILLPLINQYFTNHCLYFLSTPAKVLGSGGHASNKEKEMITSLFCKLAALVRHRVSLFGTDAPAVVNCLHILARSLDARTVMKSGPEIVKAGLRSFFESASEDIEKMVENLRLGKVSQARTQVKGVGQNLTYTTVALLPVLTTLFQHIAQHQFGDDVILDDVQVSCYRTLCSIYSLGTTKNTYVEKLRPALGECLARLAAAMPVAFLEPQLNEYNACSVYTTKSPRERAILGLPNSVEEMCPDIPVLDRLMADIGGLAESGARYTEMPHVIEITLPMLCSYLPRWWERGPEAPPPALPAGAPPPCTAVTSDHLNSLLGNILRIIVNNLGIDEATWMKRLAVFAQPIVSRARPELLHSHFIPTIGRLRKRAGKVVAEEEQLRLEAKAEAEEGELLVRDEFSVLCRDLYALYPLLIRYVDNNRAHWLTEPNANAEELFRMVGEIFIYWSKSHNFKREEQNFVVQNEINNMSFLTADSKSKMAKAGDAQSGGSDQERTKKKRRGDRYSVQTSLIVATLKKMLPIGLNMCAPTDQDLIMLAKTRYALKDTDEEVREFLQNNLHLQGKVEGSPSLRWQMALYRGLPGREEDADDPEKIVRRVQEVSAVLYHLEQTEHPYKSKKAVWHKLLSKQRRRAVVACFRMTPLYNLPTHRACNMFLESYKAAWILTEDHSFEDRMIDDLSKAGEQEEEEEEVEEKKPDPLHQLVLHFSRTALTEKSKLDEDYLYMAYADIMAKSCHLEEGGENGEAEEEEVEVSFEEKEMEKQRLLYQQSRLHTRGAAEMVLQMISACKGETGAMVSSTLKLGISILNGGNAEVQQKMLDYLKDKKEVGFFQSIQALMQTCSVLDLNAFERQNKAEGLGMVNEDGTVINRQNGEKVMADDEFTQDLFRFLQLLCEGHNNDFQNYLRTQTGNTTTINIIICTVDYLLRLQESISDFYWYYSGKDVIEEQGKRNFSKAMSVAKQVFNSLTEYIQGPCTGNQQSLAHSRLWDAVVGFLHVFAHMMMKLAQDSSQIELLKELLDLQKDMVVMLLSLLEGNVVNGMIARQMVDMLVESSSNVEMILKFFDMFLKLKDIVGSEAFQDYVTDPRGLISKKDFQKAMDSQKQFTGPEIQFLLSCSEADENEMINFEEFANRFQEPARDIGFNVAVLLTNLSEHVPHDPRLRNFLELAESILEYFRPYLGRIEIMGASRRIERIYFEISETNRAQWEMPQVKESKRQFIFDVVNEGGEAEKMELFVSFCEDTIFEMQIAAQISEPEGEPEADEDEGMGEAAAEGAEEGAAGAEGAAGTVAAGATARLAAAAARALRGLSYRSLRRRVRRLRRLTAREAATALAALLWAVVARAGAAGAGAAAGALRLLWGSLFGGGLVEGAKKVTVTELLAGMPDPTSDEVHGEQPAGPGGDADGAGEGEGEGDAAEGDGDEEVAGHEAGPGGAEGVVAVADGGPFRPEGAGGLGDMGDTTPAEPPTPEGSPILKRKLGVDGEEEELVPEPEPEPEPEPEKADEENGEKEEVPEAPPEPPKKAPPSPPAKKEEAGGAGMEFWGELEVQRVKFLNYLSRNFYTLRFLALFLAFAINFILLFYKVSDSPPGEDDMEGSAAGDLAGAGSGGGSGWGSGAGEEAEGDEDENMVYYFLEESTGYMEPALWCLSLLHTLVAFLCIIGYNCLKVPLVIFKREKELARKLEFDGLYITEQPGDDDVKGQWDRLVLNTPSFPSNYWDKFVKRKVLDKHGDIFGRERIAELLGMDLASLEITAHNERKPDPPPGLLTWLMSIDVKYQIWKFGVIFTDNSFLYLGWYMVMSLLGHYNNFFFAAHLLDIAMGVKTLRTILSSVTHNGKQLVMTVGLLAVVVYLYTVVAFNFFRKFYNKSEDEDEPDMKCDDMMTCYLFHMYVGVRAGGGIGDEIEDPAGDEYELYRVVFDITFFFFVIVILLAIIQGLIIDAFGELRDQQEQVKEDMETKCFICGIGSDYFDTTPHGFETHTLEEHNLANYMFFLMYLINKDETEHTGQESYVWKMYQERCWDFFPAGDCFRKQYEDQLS
Protocol: (§1) Cardiac SR was prepared from mature female crossbred sheep hearts, and skeletal SR vesicles were isolated from the back and leg muscles of mature female New Zealand white rabbits[29],[54] with approval from the ANU Animal Experiment Ethics Committee Protocol Number A2015/35. […] Solutions for vesicle incorporation contained (mM): cis 230 caesium methanesulfonate (CsMS); 20 CsCl; 1 CaCl2 and 10 […] (TES) pH 7.4 and trans 30 CsMS; 20 CsCl; 1 CaCl2 10 TES; pH 7.4. […] Following incorporation, 200 mM CsMS was added to the trans solution and the cis solution exchanged with recording solution containing (mM): 230 CsMS; 20 CsCl; 0.001 CaCl2;10 TES and pH 7.4, with [Ca^2+] set by a [BAPTA] determined using a Ca^2+ electrode. The cytoplasmic and luminal solutions contained 1 μM and 1 mM Ca^2+ respectively, with symmetrical 250/250 mM CsMS. Bilayer voltage was switched between +40 mV and −40 mV (cytoplasmic voltage relative to grounded luminal solution) every 30 s. The activity of the RyR channels used here included 1 µM Ca^2+ in the cytoplasmic solution and 1 mM Ca^2+ in the luminal solution[29],[55]. Electrophysiology experiments were analysed using Channel 2 (P.W. Gage, M. Smith, Australian National University) and Channel 3 (N.W. Laver, University of Newcastle, Australia) software, available from the authors upon request. Statistical analyses were performed using Microsoft Excel (Office 365). […] Following most incorporation events, a single channel only was active in the bilayer and channel open probability (Po), mean open time (To), mean closed time (Tc) and open event frequency (Fo) were measured. When 2–4 channels were active in a bilayer, PO was approximated from the fractional mean current (I’F), i.e., mean current divided by maximum current. I’F is equal to PO in a single channel and indicates the average PO of multiple channels in a bilayer. […] Experiments at UN also included a minority of multi-channel experiments. The bilayer rigs, solution composition, source of channels, data acquisition and analyses methods were all identical.
(§2) Statistical analysis of single channel data was performed using Excel spreadsheets and embedded Students t-test functions or a sign test as indicated in the graphs in Figs. 1 and 3.

RyR2 = experiment: Single channel electrophysiology of RyR2 channels inserted into lipid bilayers (exposure to peptide); assay type: biochemical, sheep (cardiac SR)
Protocol: as §1, §2

RyR1 [2] = target: T1, RyR1; experiment: Washout (reversibility/avidity) single channel experiments, RyR1; assay type: biochemical, New Zealand white rabbit (skeletal SR)
Protocol: Cardiac SR was prepared from mature female crossbred sheep hearts, and skeletal SR vesicles were isolated from the back and leg muscles of mature female New Zealand white rabbits[29],[54] with approval from the ANU Animal Experiment Ethics Committee Protocol Number A2015/35. […] Solutions for vesicle incorporation contained (mM): cis 230 caesium methanesulfonate (CsMS); 20 CsCl; 1 CaCl2 and 10 […] (TES) pH 7.4 and trans 30 CsMS; 20 CsCl; 1 CaCl2 10 TES; pH 7.4. SR vesicles routinely incorporated with the cytoplasmic surface of the SR and RyR facing the cis chamber. Following incorporation, 200 mM CsMS was added to the trans solution and the cis solution exchanged with recording solution containing (mM): 230 CsMS; 20 CsCl; 0.001 CaCl2;10 TES and pH 7.4, with [Ca^2+] set by a [BAPTA] determined using a Ca^2+ electrode. […] Electrophysiology experiments were analysed using Channel 2 (P.W. Gage, M. Smith, Australian National University) and Channel 3 (N.W. Laver, University of Newcastle, Australia) software, available from the authors upon request. […] Following most incorporation events, a single channel only was active in the bilayer and channel open probability (Po), mean open time (To), mean closed time (Tc) and open event frequency (Fo) were measured. […] In all experiments control channel activity was recorded for 3 to 5 min before exposure to the test compound. […]

φ-Xibalbin3-Xt3a
activity against RyR1 (discussion) (RyR1 [1]): even more potent than IpTxA | relPo (RyR1 [1]; 10 pM Xt3a, mean (sem in row below)): 4.209 | relPo (RyR1 [1]; 10 pM Xt3a, replicate CT1012 n): 4.171 | relPo (RyR1 [1]; 10 pM Xt3a, replicate CT1013 n): 17.6667 | relPo (RyR1 [1]; 10 pM Xt3a, replicate CT1024 n): 1.745 | relPo (RyR1 [1]; 10 pM Xt3a, replicate CT1051 n): 0.553 | relPo (RyR1 [1]; 10 pM Xt3a, replicate CT1052 n): 1.086 | relPo (RyR1 [1]; 10 pM Xt3a, replicate CT1055 n): 3.339 | relPo (RyR1 [1]; 10 pM Xt3a, replicate CT1143 n): 0.669 | relPo (RyR1 [1]; 10 pM Xt3a, replicate CT1144 n): 11.3 | relPo (RyR1 [1]; 10 pM Xt3a, replicate CT1145 n): 13.6431 | relPo (RyR1 [1]; 10 pM Xt3a, replicate CT1146 n): 1.397 | channel open probability (PO) relative to baseline (RyR1 [1]; 10 pM to 1 µM): significant changes in all Xt3a concentrations tested | substate level, % of maximum conductance (RyR1 [1]; 100 pM Xt3a, −40 mV, prolonged gating to substate levels): < 50% | relPo (RyR1 [1]; 100 pM Xt3a, mean (sem in row below)): 2.735 | relPo (RyR1 [1]; 100 pM Xt3a, replicate CT1012 n): 1.829 | relPo (RyR1 [1]; 100 pM Xt3a, replicate CT1013 n): 17 | relPo (RyR1 [1]; 100 pM Xt3a, replicate CT1024 n): 1.169 | relPo (RyR1 [1]; 100 pM Xt3a, replicate CT1051 n): 0.6185 | relPo (RyR1 [1]; 100 pM Xt3a, replicate CT1052 n): 1.17 | relPo (RyR1 [1]; 100 pM Xt3a, replicate CT1055 n): 1.101 | relPo (RyR1 [1]; 100 pM Xt3a, replicate CT1143 n): 1.262 | relPo (RyR1 [1]; 100 pM Xt3a, replicate CT1144 n): 6.375 | relPo (RyR1 [1]; 100 pM Xt3a, replicate CT1145 n): 3.125 | relPo (RyR1 [1]; 100 pM Xt3a, replicate CT1146 n): 1.411 | decline in PO compared with 10 nM Xt3a (RyR1 [1]; 0.1–1 µM Xt3a): ~ 50% | full conductance channel openings (high affinity activation) (RyR1 [1]; Xt3a up to 10 nM): led to an increase in full conductance channel openings | voltage-dependent promotion of channel substate activity (RyR1 [1]; −40 mV vs +40 mV, RyR1 and RyR2): greater in the presence of nanomolar concentrations of Xt3a in RyR1 than in RyR2 | channel activity during exposure (RyR2): no significant change in activity during exposure to the toxin | channel activity (RyR2; 1 nM and 10 nM): weak trend towards increased activity | openings to the maximum conductance (RyR2; 1 nM to 1 μM): did not show any consistent changes in openings to the maximum conductance | substate level, % of maximum conductance (RyR2; 10 nM Xt3a, −40 mV, prolonged gating to substate levels): < 50% | reversibility on washout (RyR1 [2]; 100 pM, 10 nM and 1 μM, early (2 to 3 min) and late (15 to 23 min) after washout): no significant washout of Xt3a effect was observed; also recorded: persistent activity after washout in our single-channel recordings for as long as the bilayers lasted | sub-state activity during washout (RyR1 [2]; maintained for as long as the bilayer lasted): sub-state activity increased during the washout period
